Test results taken from patent US20200079819A1, “Use of a Vaccine Targeting a Cryptic Tert Epitope, for Treating Lung Cancer in a HLA-A*0201-Positive Never-Smoker or Light-Former Smoker Patient” (Vaxon Biotech, priority 2017, published 2020).
No end group written: not given here.

System: T cells specific for the TERT572 peptide
Assay: Immunomonitoring: IFNg ELISpot assay on PBMC of vaccinated patients
Assay type: in vivo, human

Vx-001: vaccine composed of two nine-amino-acid peptides, TERT572 (SEQ ID No: 1) and TERT572Y (SEQ ID No: 2), administered separately with adjuvant Montanide ISA51 VG (chain 1 RLFFYRKSV; chain 2 YLFFYRKSV; not fully specified)
Patients who mounted a TERT572 specific immune response (Vx-001 treated patients measured at least at W6, W18 or thereafter (22 of 75 patients)): 29.3% | Frequency of vaccine-induced immune response (Vx-001 treated patients with natural immunity): 15% | Patients who mounted a TERT572 specific immune response (Vx-001 treated patients with non-squamous (NSQ) NSCLC): 36% | Patients who mounted a TERT572 specific immune response (Vx-001 treated patients with squamous (SQ) NSCLC): 13.3% | Frequency of vaccine-induced immune response (Vx-001 treated patients without natural immunity): 36.2%
